One assay concerns the target T1, TRPA1 channel (Mus musculus, UniProt Q8BLA8).
T1 construct: from tissue; host or cells: living male ICR mice (sole of the left leg, sensory nerves)
Put plainly: AITC-induced pain behavior evaluation test (mouse licking model). The format is in vivo. The note with it: male ICR mice; p.o. 30 mpk, 1 h before AITC (0.1%) s.c. to sole; licking time in 5 min vs vehicle. As to the method:
AITC-Induced Pain Behavior Evaluation Test
To evaluate the effectiveness of the test substance in vivo, allylisothiocyanate (AITC)-induced pain behavior evaluation test was performed using mice.
AITC is a selective agonist of the TRPA1 channel, and causes a pain behavior by TRPA1 activation when administered to animal. Therefore, the intensity of the TRPA1 antagonist action of the test substance in the living body can be evaluated by measuring the pain behavior after AITC administration.
1. Administration of Test Substance to Animal
As the animal, male ICR mice (6- to 8-week-old) were used. The mice were fasted the previous day of the test. The test substance was intraperitoneally or orally administered for evaluation. In the case of intraperitoneal administration, the substance was administered 30 min before the AITC administration. In the oral administration, the substance was administered 60 min before the AITC administration.
2. AITC-Induced Pain Behavior Evaluation
3. Calculation of Inhibitory Rate
The licking time of the vehicle administration group in each test was taken as 100%, and the activity rate by administration of each test substance (Licking time on test substance administration/Licking time of vehicle administration group×100) was determined, and the numerical value obtained by subtracting the activity rate from 100 was calculated as an inhibitory rate.

A further assay has as its target T2, human TRPA1 (Homo sapiens, UniProt O75762).
T2 construct: host or cells: human embryonic kidney-derived 293T cells, transient transfection with pcDNA3.1/zeo(+) plasmid
Put plainly: Measurement of TRPA1 antagonist activity (intracellular calcium increase, FLIPR). The class given is cell-based. The conditions noted are these: 293T cells transfected with human TRPA1 expression plasmid, allylisothiocyanate 20 μM stimulation, calcium fluorescence, read-out: antagonism hTRPA1. The text has this:
Measurement of TRPA1 Antagonist Activity
Human TRPA1 Expression Plasmid
As cDNA encoding human TRPA1 (GenBank accession No. […]), a commercially available product was purchased (manufactured by Kazusa DNA Research Institute, clone No.: pFN21AB7348, item No.: FHC07217). Using this as a template, full-length human TRPA1 gene was amplified using the primer sequences shown below, by reaction using DNA polymerase (manufactured by Stratagene, trade name: PfuUltra High-Fidelity DNA Polymerase).
A recognition site (underlined) of restriction enzyme HindIII was added to the 5′ side, and XbaI site (underlined) was added to the 3′ side, and GTT of the template sequence was changed to termination codon TAG (bold). The obtained double stranded DNA was enzyme-digested with HindIII and XbaI, and introduced into a multicloning site of expression plasmid pcDNA3.1/zeo(+) (manufactured by Invitrogen) to give a human TRPA1 expression plasmid.
Human embryonic kidney-derived 293T cells were cultured in Dulbecco's Modified Eagle Medium containing 10% fetal bovine serum, 10 unit penicillin, and 10 μg streptomycin, plated on a petri dish having a diameter of 10 cm at 3×10^6 cells, and cultured for 24 hr. A medium containing a reduced amount of serum (manufactured by Invitrogen, trade name: OPTI-MEM, 600 μL), a gene insertion reagent (manufactured by Mirus Bio, trade name: Mirus TransIT-293, 18 μL), and human TRPA1 expression plasmid (6 μg) were mixed, the total amount of the mixture was added to the cells on the petri dish to allow for gene transfer. The cells were recovered about 8 hr later, plated on a poly-D-lysine coated 384 well black/clear bottom plate at 7,500-12,000 cells/well, and cultured overnight.
Measurement of Intracellular Calcium Increase
The 384 well plate was recovered, and the medium was removed. A calcium-bonded fluorescent indicator (manufactured by Molecular Device, trade name: Calcium4 Assay Kit, 40 μL) dissolved in assay buffer (1×HBSS, 20 mM HEPES, pH 7.2) was added, and the cells were stained in a 37° C. incubator for 1 hr. The cells were taken out at room temperature and left standing for 15 min or more. A test substance (10 μL) was added by a 384 well type dispenser, and the mixture was incubated at room temperature for 10 min. Then, allylisothiocyanate (12.5 μL) at a final concentration of 20 μM was added by a fluorescence imaging plate reader (manufactured by Molecular Device, FLIPR), and changes in the relative fluorescence intensity were measured for 5 min.
Test Substance Preparation
The test substance was dissolved in dimethyl sulfoxide and serially diluted with an assay buffer containing 0.1% bovine serum albumin (1×HBSS, 20 mM HEPES, pH 7.2) to a 5-fold concentration of the evaluation concentration. Allylisothiocyanate, which is a known TRPA1 activator, was dissolved in dimethyl sulfoxide to 100 mM, and further diluted 5-fold (100 μM) of the final concentration, like the test substance.
Calculation of Antagonist Activity
Under the test substance-free conditions, the maximum variation range of the fluorescence intensity before and after allylisothiocyanate stimulation was defined to be 100% activity rate, and the variation range before and after buffer stimulation was defined as 0% activity rate. The activity rate on addition of the test substance was determined, and the numerical value obtained by subtracting the activity rate from 100 was defined to be an inhibitory rate. IC50, which is the concentration of the test substance necessary for reaching the 50% inhibitory rate, was calculated from the sigmoid approximate curve by a spreadsheet software Excel-Fit.

Here are results for 10 compounds from patent US9562043B2 (EA Pharma Co., Ltd., priority 2012, dated 2017).

T2 sequence (O75762 whole entry): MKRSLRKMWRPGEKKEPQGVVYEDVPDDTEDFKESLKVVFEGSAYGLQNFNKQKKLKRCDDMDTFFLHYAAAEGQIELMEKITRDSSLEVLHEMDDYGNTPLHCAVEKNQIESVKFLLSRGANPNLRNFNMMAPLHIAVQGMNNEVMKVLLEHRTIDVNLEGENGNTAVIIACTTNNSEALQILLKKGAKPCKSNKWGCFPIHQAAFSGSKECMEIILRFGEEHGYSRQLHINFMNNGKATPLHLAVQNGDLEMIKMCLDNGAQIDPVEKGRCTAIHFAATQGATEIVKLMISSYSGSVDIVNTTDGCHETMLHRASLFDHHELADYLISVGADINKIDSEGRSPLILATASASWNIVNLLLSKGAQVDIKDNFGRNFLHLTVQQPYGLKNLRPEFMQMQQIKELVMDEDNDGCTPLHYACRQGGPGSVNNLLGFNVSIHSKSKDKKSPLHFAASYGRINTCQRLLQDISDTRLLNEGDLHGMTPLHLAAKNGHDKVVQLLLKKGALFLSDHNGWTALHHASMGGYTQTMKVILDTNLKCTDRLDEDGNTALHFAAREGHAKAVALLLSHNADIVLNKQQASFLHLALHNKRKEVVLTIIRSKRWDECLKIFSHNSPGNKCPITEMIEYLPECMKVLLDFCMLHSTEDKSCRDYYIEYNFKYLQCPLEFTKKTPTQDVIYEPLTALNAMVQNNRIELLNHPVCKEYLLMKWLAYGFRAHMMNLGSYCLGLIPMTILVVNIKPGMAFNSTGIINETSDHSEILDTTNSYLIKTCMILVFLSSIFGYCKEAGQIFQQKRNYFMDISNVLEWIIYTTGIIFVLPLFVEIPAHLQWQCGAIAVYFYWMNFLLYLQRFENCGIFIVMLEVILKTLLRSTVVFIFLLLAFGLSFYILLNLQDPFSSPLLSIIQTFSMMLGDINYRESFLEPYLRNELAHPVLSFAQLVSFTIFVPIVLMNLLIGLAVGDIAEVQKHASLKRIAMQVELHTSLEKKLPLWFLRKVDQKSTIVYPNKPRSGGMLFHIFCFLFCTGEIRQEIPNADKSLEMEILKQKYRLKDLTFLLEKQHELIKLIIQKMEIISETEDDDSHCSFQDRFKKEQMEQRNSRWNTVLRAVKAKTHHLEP
T1 sequence (Q8BLA8 whole entry): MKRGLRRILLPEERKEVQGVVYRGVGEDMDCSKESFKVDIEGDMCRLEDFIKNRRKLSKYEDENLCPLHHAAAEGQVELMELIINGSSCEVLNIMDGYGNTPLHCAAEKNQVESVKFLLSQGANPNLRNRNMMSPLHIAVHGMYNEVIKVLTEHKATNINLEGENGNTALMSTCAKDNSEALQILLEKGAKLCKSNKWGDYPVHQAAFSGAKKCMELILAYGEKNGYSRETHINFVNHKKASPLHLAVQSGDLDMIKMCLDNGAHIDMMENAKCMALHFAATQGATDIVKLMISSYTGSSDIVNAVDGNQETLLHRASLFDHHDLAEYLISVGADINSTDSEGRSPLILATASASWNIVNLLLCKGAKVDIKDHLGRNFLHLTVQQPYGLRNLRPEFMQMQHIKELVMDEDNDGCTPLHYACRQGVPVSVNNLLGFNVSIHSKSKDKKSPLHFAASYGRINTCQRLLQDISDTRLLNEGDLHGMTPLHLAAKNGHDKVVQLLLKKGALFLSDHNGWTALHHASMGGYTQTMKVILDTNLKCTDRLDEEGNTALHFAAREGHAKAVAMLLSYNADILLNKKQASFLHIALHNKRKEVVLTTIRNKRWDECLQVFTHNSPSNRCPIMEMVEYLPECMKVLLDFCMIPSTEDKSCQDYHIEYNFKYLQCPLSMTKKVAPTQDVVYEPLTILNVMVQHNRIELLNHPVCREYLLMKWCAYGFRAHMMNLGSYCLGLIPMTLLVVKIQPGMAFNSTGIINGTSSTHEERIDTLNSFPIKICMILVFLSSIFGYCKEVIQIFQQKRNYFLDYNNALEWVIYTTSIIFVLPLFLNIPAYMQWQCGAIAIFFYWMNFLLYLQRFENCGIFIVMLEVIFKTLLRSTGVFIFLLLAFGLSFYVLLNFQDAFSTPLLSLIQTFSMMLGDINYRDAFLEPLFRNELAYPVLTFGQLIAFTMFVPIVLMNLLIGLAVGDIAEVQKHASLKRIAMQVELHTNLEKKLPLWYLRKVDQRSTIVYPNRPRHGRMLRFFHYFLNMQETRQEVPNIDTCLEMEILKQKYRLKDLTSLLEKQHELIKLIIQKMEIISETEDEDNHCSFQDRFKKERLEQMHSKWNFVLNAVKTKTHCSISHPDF

Consider `O=C(NCc1nc(-c2ccc(C(F)(F)F)cc2)cs1)[C@@H]1CCCN1S(=O)(=O)c1ccc(Cl)s1` [compound 1, (2S)-1-(5-chlorothiophene-2-sulfonyl)-N-({4-[4-(trifluoromethyl)phenyl]thiazol-2-yl}methyl)pyrrolidine-2-carboxamide], for which the “mouse licking model (p.o. 1 h, 30 mpk) (% inh.)” value at TRPA1 channel worked out at 36 % inh. Moreover, the IC50 on human TRPA1 is 0.14 µM.
The matching figures for `O=C(NCc1nc(-c2ccc(OC(F)(F)F)cc2)cs1)[C@@H]1C=CCN1S(=O)(=O)c1ccc(Cl)s1` [compound 20, (2S)-1-(5-chlorothiophene-2-sulfonyl)-N-({4-(4-(trifluoromethoxy)phenyl]-thiazol-2-yl}methyl)-3,4-didehydropyrrolidine-2-carboxamide]: 43 % inh and 0.09 µM.
Regarding `O=C(NCc1nc(-c2ccc(C(F)(F)F)cc2)cs1)[C@@H]1CCCN1S(=O)(=O)c1ccc(F)c(Cl)c1` [compound 52, (2S)-1-(3-chloro-4-fluoro-phenyl)sulfonyl-N-({4-[4-(trifluoromethyl)phenyl]-thiazol-2-yl}methyl)pyrrolidine-2-carboxamide], at human TRPA1, the IC50 is 0.29 µM.
Consider `O=C(NCc1nc(-c2ccc(C(F)(F)F)cc2)cs1)[C@@H]1CCCN1S(=O)(=O)c1ccc(F)c(F)c1` [compound 51, (2S)-1-(3,4-difluorophenyl)sulfonyl-N-({4-[4-(trifluoromethyl)-phenyl)thiazol-2-yl}methyl)pyrrolidine-2-carboxamide], for which, on human TRPA1, the IC50 is 0.06 µM.
For the compound `Cc1cc(CNC(=O)[C@@H]2CCCN2S(=O)(=O)c2ccc(Cl)s2)nn1-c1ccc(Cl)cc1` [compound 17, (2S)-1-(5-chlorothiophene-2-sulfonyl)-N-{[1-(4-chlorophenyl)-5-methylpyrazol-3-yl]methyl)pyrrolidine-2-carboxamide], the IC50 on human TRPA1 came out at 4.44 µM.
Take `Cc1ccc(-c2csc(CNC(=O)[C@@H]3CCCN3S(=O)(=O)c3ccc(Cl)s3)n2)cc1` [compound 5, (2S)-1-(5-chlorothiophene-2-sulfonyl)-N-{[4-(4-methylphenyl)thiazol-2-yl]methyl}pyrrolidine-2-carboxamide]: at human TRPA1, the IC50 is 0.58 µM.
In the case of `Cc1sc(CNC(=O)[C@@H]2C=CCN2S(=O)(=O)c2ccc(Cl)s2)nc1-c1ccc(C(F)(F)F)cc1` [compound 23, (2S)-1-(5-chlorothiophene-2-sulfonyl)-N-({5-methyl-4-[4-(trifluoromethyl)phenyl]-thiazol-2-yl}methyl)-3,4-didehydropyrrolidine-2-carboxamide], the IC50 at human TRPA1 turned out to be 0.14 µM.
As for `O=C(NCc1nc(-c2ccc(C(F)(F)F)cc2)cs1)[C@@H]1CSCN1S(=O)(=O)c1ccc(Cl)s1` [compound 29, (4R)-3-(5-chlorothiophene-2-sulfonyl)-N-({4-[4-(trifluoromethyl)phenyl]-thiazol-2-yl}methyl)-1,3-thiazolidine-4-carboxamide], at human TRPA1, the IC50 was 0.58 µM.
As to `C[C@H](NC(=O)[C@]1(C)CCCN1S(=O)(=O)c1ccc(Cl)s1)c1nc(-c2ccc(OC(F)(F)F)cc2)cs1` [compound 35, (2S)-1-(5-chlorothiophene-2-sulfonyl)-N-[(1S)-1-{4-[4-(trifluoromethoxy)phenyl]-thiazol-2-yl}ethyl]-2-methylpyrrolidine-2-carboxamide], the IC50 at human TRPA1 is 2.5 µM.
`O=C(NCc1nc(-c2ccc(C(F)(F)F)cc2)cs1)[C@@H]1CCCN1S(=O)(=O)c1cccc(Cl)c1` [compound 43]: the IC50 at human TRPA1 was 2.7 µM.
